In patent US20220143010A1, “CANCER TREATMENT COMPRISING NALTREXONE AND A CANNABINOID” (LDN Pharma Limited, priority 2019, published 2022):
“Also recorded” adds a separate entry of the source. Read-outs that look alike come from different tables or passages of the source.

Key:
Format in all cases: cell-based
[1] = test system: MCF7 (breast cancer) cells; test: Two-stage sequential treatment, cell number and viability (trypan blue); conditions: LDN 10 nM or 6BN 10 μM for 48 h before cannabidiol 10 μM for 48 h, versus reversed sequence
Method: Each treatment lasted four days and consisted of two days of treatment with the first agent (UN=control, LDN=Low Dose Naltrexone at 10 nM CBD=Cannabidiol, 6BN=6-β-naltrexol) before the second-named agent was introduced for a further two days.
Another illustrative and non-limiting experiment was carried out on cultures of MCF7 (breast cancer) cells. In brief, the cultures were treated with LDN or 6BN for two days, after which a cannabinoid was administered for a further two days. Cell number and viability were assessed on day four. The sequence of the administration for each therapeutic agent was reversed and the experiment repeated.
In full, MCF7 cells were seeded into 6-well plates at a density of 1.5×10^4/well and left to adhere. Cells were then cultured with naltrexone (10 nM), 6-β-naltrexol (10 μM) or cannabidiol (10 μM). Drug-containing media was removed after 48 h, and cells were rinsed gently with drug-free medium. Fresh culture medium was then added to the cells supplemented with either naltrexone (10 nM), 6-β-naltrexol (10 μM) or cannabidiol (10 μM), as indicated in the graph. Cell number and viability were assessed a further 48 h later, with percentages of live and dead cells being discriminated by trypan blue dye exclusion. Data were then consolidated to compare the effect of sequence on overall effect.

CB2 = test: Western blot of CB2 levels in MCF7 cultures after two days of treatment; conditions: for levels of the CB2 receptor after treatment: cancer cells (MCF7), summary statement
Method: Levels of Bcl2-associated death promoter (BAD), p21 protein, the opioid receptors kappa 1 (OPRK1) and mu 1 (OPRM1), and the cannabinoid receptors CBR1 (CB1) and CBR2 (CB2) are visualised by Western blot (left) against GAPDH as a loading control, and quantified via density analysis relative to GAPDH (right).
One illustrative and non-limiting experiment was carried out on cultures of MCF7 (breast cancer) cells. In brief, either LDN at 10 nM or 6BN at 1 μM or 10 μM was administered in vitro to a culture for two days, after which the expression levels of BAD, p21, opioid receptors kappa and mu, CB1, CB2, and GAPDH (as a loading control) were analysed via Western blot and subsequent quantification via density measurement of the bands.
In full, MCF7 cells were seeded into 6-well plates at a density of 1×10^5/well and left to adhere over-night. Naltrexone (10 nM) or 6-β-naltrexol (1 μM or 10 μM) were added to the cells before harvesting cells for western blot analysis. Primary probing was performed with specific antibodies generated against BAD, p21, OPRK1, […], CBR-1 and CBR-2. […] Anti-GAPDH was used as a loading control. All antibodies were used at a dilution of 1:1000, followed by the appropriate HRP conjugated secondary antibodies also at a dilution of 1:1000. Bands were visualised by the SuperSignal chemiluminescent detection system, and densitometry of band intensity was determined using Adobe Photoshop CS3, v10.0, and normalised to the loading control.

A549 (lung cancer) cells = test: Two-block schedule LDN+CBD and chemotherapeutic agent, cell number and viability at 96 h
Method: • A549 (lung cancer) and HCT116 (colon cancer) cells were cultured with drugs according to the schedules in Table 1. The schedules lasted a total of 96 h. • Treatments were separated into two blocks, each lasting 48 h. Due to the complications of cell testing using three different drugs in three different treatment phases, the CBD and LDN were administered together in one treatment phase and the chemotherapeutic agent in the other treatment phase. • There was a washout period between the two blocks, where exhausted media containing drugs were removed, cells then washed, before fresh media was added that contained the next block of treatment. • The chemotherapeutic agents were gemcitabine (GEM) or oxaliplatin (OXP), and used at an ˜IC20 concentration (1 uM). Low dose naltrexone (LDN) was used at 10 nM and cannabinoid (CBD) was used at 1 uM. “0” means nothing was administered and is used as a control. • Cell number and percentage cell viability were assessed at 96 h. Data were then consolidated to compare the effect of sequence on overall effect.

Row | Structure (SMILES) | effect on inhibiting the proliferation of the cancer, by sequence [1] | rise of CB2 compared among the three treatments (CB2; MCF7 cells, 10 μM 6BN, two days) | levels of the CB2 receptor after treatment (CB2) | IC20 (A549 (lung cancer) cells; concentration used in Example 3, A549 and HCT116, cell line not specified, read-out: IC20 concentration) [µM] | IC20 (A549 (lung cancer) cells; Homo sapiens, A549, read-out: IC20 concentration) [µM]
1 | Oc1ccc2c3c1OC1C(O)CC[C@@]4(O)[C@@H](C2)N(CC2CC2)CC[C@]314 (stereo partly shown) [6BN, N-cyclopropylmethyl-7,8-dihydro-14-hydroxynorisomorphine] | greater effect on inhibiting the proliferation | highest | significant increase |  | 
2 | O=C1[O][Pt]2([NH][C@@H]3CCCC[C@H]3[NH]2)[O]C1=O [OXP, oxaliplatin] |  |  |  | ~1 | 
3 | O=C1CC[C@@]2(O)[C@H]3Cc4ccc(O)c5c4[C@@]2(CCN3CC2CC2)[C@H]1O5 [LDN, 17-cyclopropylmethyl-4.5α-epoxy-3,14-dihydroxymorphinan-6-one] | greater effect on inhibiting the proliferation |  | significant increase; also recorded: increased significantly |  | 
4 | Nc1ccn([C@@H]2O[C@H](CO)[C@@H](O)C2(F)F)c(=O)n1 [GEM, gemcitabine] |  |  |  |  | ~1
